{
  "source": "patent US20250041624A1",
  "about": "“METHOD FOR ENHANCING ACTIVITY OF PHOTOSENSITIZER BY MAGNETIC FIELD” (PEKING UNIVERSITY, priority 2021, published 2025)",
  "key": {"HeLa cells": {"test_system": "HeLa cells", "experiment": "14-day culture and crystal violet staining of HeLa cells after light and magnetic field", "assay_type": "cell-based", "procedure": "(2) HeLa cells (1×10^3/well) are seeded in 6-well plates, 30 μL aqueous solution of RB (final concentration of 30 μM) or equal volume 0.01M PBS buffer is added as control, and, after 24 h incubation in DMEM (comprising FBS) medium, cells are washed 3 times with PBS buffer.\nThe cells are treated in the dark or with 10 min light (561 nm […], 5 mW·cm^−2) under magnetic field conditions at 0 mT, 250 mT, 800 mT respectively. Culture is continued in the dark, and media is changed every other day. After 14 days, it is rinsed with PBS buffer and methanol, and cells are stained with added 0.1 wt % aqueous solution of crystal violet, and the number of cells in the plate is shown in FIG. 9; and the relative cell activity of HeLa cells at a concentration of 30 μmol/L RB under the magnetic field conditions of 0 mT, 250 mT, 800 mT is shown in FIG. 10."}, "cleaved Caspase-3": {"test_system": "cleaved Caspase-3", "experiment": "Western blot of cleaved Caspase-3 in HeLa cells", "assay_type": "cell-based", "details": "RB 30 μmol/L treated HeLa; light; 250 mT vs no magnetic field", "procedure": "HeLa cells (2×10^4/well) are seeded in 6-well plates and cultured for 24 hours, added with RB solution (final concentration 30 μmol/L) or PBS buffer (final concentration 0.01 mol/L), and after treating 24 hours, cells are washed 3 times with PBS buffer.\nThe cells are placed under a magnetic field at 0, 250 or 800 mT, simultaneously with light (561 nm, 5 mW·cm^−2) or in the dark. After 24 hours treatment, cells are washed with PBS buffer and collect by centrifugation. Protein is extracted from cells using RIPA lysis buffer (medium lysis strength). Target protein is detected with primary antibody, to identify cleaved Caspase-3 protease, Bax (BCL2-Associated X protein) and Bcl-2 (B lymphocytomatose-2 gene), respectively, with β-Actin antibody as the reference. Images are acquired by Bio-Rad ChemiDoc touch imaging system, and results are shown in FIG. 14, in which, group A is PBS buffer treated HeLa cells (light, no magnetic field); group B is RB treated HeLa cells (light, no magnetic field); group C is RB-treated Hela cells (light, 250 mT magnetic field); group D is RB-treated Hela cells (light, 800 mT magnetic field).\nThe change rate of protein expression is (AB−A0)/A0×100%, where AB and A0 are protein expression with and without magnetic field, respectively (obtained by ImageJ software analyzing the bands in FIG. 14)."}, "HeLa xenograft tumor": {"test_system": "HeLa xenograft tumor", "experiment": "HeLa xenograft tumor growth in BALB/c nude mice with photodynamic treatment and magnetic field", "assay_type": "in vivo", "details": "RB 1.0 mg/kg intratumoral, 14 days", "procedure": "Twenty-four five-weeks old female BALB/c nude mice are selected, 1×10^6 HeLa cells (in 200 μL 0.01 mol/L PBS buffer) are inoculated subcutaneously into the dorsal right flank of each mouse, and a xenograft tumor model is established (Five-weeks old female BALB/c nude mice are obtained from Beijing Agronomy and housed under standard environmental conditions. All animal procedures are approved by Beijing Agronomy Animal Care and Use Committee). After tumors growing up, 25 μL RB (1.0 mg/kg) or an equal volume of PBS buffer at a concentration of 0.01 mol/L are injected intratumorally.\nThe treatment conditions for dividing the mice into 8 groups (3 mice each) are as follows: • (1) Injection of PBS buffer-no light-no magnetic field (PBS-dark-0mT); • (2) Injection of PBS buffer-light-no magnetic field (PBS-light-0mT); • (3) Injection of PBS buffer-light-250mT magnetic field (PBS-light-250mT); • (4) Injection of PBS Buffer-Light-800mT magnetic field (PBS-light-800mT); • (5) RB-light-no magnetic field (RB-light-0mT) injection (RB-light-0mT); • (6) Injection of RB-light-100mT magnetic field (RB-light-100mT); • (7) Injection of RB-light-250mT magnetic field (RB-light-250mT); • (8) Inject RB-light-800mT magnetic field (RB-light-800mT).\nAll groups except group (1) receive light 5 min after injection at wavelength of 400-700 nm and power of 100 mW·cm^−2 and light time of 10 min. The tumor area of mice in groups (3), (4) and (6)-(8) are exposed to static magnetic field by using electromagnet during light exposure.\nTest (one): Tumor size is monitored with digital calipers every other day for the following 14 days (peripheral measurements of tumors are performed […]), and tumors are calculated by Volume=Length×Width×[…]. Results for groups (2), (4), (5), (7), (8) are shown in FIG. 16, in which, ** is statistical probability p<0.01; *** is p<0.005, p<0.05 is considered significant. Each group is sacrificed 3 mice on day 14 post-injection, tumor tissues are collected for photographing and weighing, and tumor tissues are removed from groups (2), (3), (4), (5), (7), (8) as shown in FIG. 17; the rate of mass change of the tumor tissue in groups (5), (7), (8) is shown in FIG. 18, and the rate of mass change is (ωB−ω0)/ω0×100%, where ωB is the tumor mass under magnetic field conditions and ω0 is the tumor mass in group (5)."}, "[1]": {"test_system": "HeLa xenograft tumor tissue", "experiment": "IHC staining (Bax, Bcl-2, cleaved Caspase-3) of xenograft tumor tissue sections for apoptosis", "assay_type": "in vivo, BALB/c nude mice", "details": "RB added, day 14, FIG. 19", "text": "Test (two): After sacrificing the mice on day 14, tumor tissue and major organs (heart, liver, spleen, lungs and kidney) are collected and detected histologically. Tumor tissue and major organs are fixed by 10% neutral formalin solution. Hematoxylin-Eosin (H&E) staining is used to analyze toxicity of light and magnetic field effects on tumor and normal organs. Terminal deoxynucleotidyl transferase-mediated dUTP nick end labeling (TUNEL) staining is used to detect apoptosis in tumor tissue, and expression of cleaved Caspase-3, Bax and Bcl-2 in tumor tissue is simultaneously detected."}},
  "data": [
    {"molecule": "O=C1OC2(c3cc(I)c(O)c(I)c3Oc3c2cc(I)c(O)c3I)c2c(Cl)c(Cl)c(Cl)c(Cl)c21", "note": "[RB, Rose Bengal]", "values": [
      {"measurement": "cytotoxicity against HeLa cells in the absence of light", "setting": "HeLa cells; RB 30 μM, dark, with or without magnetic field, FIG. 9", "result": "no cytotoxicity"},
      {"measurement": "cell numbers relative to PBS-only treatment", "setting": "HeLa cells; RB 30 μM, light alone (0 mT), 14 days, FIG. 9", "result": "significantly lower"},
      {"measurement": "cell numbers", "setting": "HeLa cells; RB 30 μM, light, 250 mT, 14 days, FIG. 9", "result": "the least"},
      {"measurement": "cell numbers", "setting": "HeLa cells; RB 30 μM, light, 800 mT, 14 days, FIG. 9", "result": "more under 800 mT conditions compared to 0 mT and 250 mT conditions"},
      {"measurement": "reduction of cell number relative to 0 mT", "setting": "HeLa cells; RB 30 μmol/L, light, 250 mT, FIG. 10", "result": 17, "unit": "%"},
      {"measurement": "increase of cell number relative to 0 mT", "setting": "HeLa cells; RB 30 μmol/L, light, 800 mT, FIG. 10", "result": 32, "unit": "%"},
      {"measurement": "change rate of cleaved Caspase-3 expression (%)", "setting": "cleaved Caspase-3", "result": "34.1 ± 1.9", "unit": "%"},
      {"measurement": "tumor growth (volume and mass)", "setting": "HeLa xenograft tumor; group (5) RB-light-0mT, 400-700 nm 100 mW·cm−2 10 min", "result": "inhibition of tumor growth"},
      {"measurement": "magnetic field effect on tumor growth", "setting": "HeLa xenograft tumor; group (6) RB-light-100mT", "result": "no significant effect on tumor growth"},
      {"measurement": "tumor growth (volume and mass)", "setting": "HeLa xenograft tumor; group (7) RB-light-250mT", "result": "further inhibition of tumor growth"},
      {"measurement": "magnetic field effect on tumor growth", "setting": "HeLa xenograft tumor; group (8) RB-light-800mT", "result": "no significant effect on tumor growth"},
      {"measurement": "apoptosis in tumor sections (IHC)", "setting": "[1]; magnetic field of 250 mT", "result": "apoptosis is more pronounced"},
      {"measurement": "apoptosis in tumor sections (IHC)", "setting": "[1]; magnetic field of 800 mT", "result": "apoptosis is not significant"}
    ]}
  ]
}
